Common to all, as to assay: relative viability (nuclei count vs DMSO), 5 days (fraction); higher = more cells survive
Compound in the test “XMD13-2 + Foretinib”: C1CC1C(=O)NC2=NNC3=C2C=CC(=C3)C4=CC(=CC=C4)C(=O)NC5CC5 [XMD13-2] + COc1cc2c(Oc3ccc(NC(=O)C4(C(=O)Nc5ccc(F)cc5)CC4)cc3F)ccnc2cc1OCCCN1CCOCC1 [Foretinib] (partner 0.25 µM)
An outline of the steps: (§1)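 Dosing by pin tool came one day after lung cancer cell lines were seeded in 1536-well plates, using either one drug or a fixed anchor-drug dose plus five library-drug doses (not always all listed) in √10 steps. After 5 days, nuclei were counted on 4× images. Relative viability is treated-well nuclei count divided by vehicle-well nuclei count, and values are medians of duplicate plates.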

Compound in the test “ALW-II-49-7 + Alpelisib”: Cc1ccc(C(=O)Nc2cccc(C(F)(F)F)c2)cc1Nc1cncc(C(N)=O)c1 [ALW-II-49-7] + Cc1nc(NC(=O)N2CCC[C@H]2C(N)=O)sc1-c1ccnc(C(C)(C)C(F)(F)F)c1 [Alpelisib] (partner 2 µM)
The method in brief: as §1

Compound in the test “ALW-II-49-7 + Pemetrexed”: Cc1ccc(C(=O)Nc2cccc(C(F)(F)F)c2)cc1Nc1cncc(C(N)=O)c1 [ALW-II-49-7] + Nc1nc2[nH]cc(CCc3ccc(C(=O)N[C@@H](CCC(=O)O)C(=O)O)cc3)c2c(=O)[nH]1 [Pemetrexed] (partner 0.2 µM)
The method in brief:
as §1

Compound in the test “Dasatinib + OSI-027”: Cc1nc(Nc2ncc(C(=O)Nc3c(C)cccc3Cl)s2)cc(N2CCN(CCO)CC2)n1 [Dasatinib] + COc1cccc2cc(-c3nc([C@H]4CC[C@H](C(=O)O)CC4)n4ncnc(N)c34)[nH]c12 [OSI-027] (partner 0.5 µM)
An outline of the steps:
as §1

For five cell lines, relative viability results are on record in the supplement of paper PMC10307832.

As for LK-2, the relative viability with XMD13-2 + Foretinib (first compound 0.05 µM) turned out to be 1.45; with XMD13-2 + Foretinib (first compound 0.1581 µM) it was 0.959; with XMD13-2 + Foretinib (first compound 0.5 µM) it was 1.06; in the test with XMD13-2 + Foretinib (first compound 1.581 µM) it was 1.16; in the test with XMD13-2 + Foretinib (first compound 5 µM), 1.16; with ALW-II-49-7 + Alpelisib (first compound 0.08 µM), 1.14. The relative viability with ALW-II-49-7 + Alpelisib (first compound 0.253 µM) is 1.09; with ALW-II-49-7 + Alpelisib (first compound 0.8 µM) it was 1.02; with ALW-II-49-7 + Alpelisib (first compound 2.53 µM) it was 0.74; with ALW-II-49-7 + Alpelisib (first compound 8 µM) it was 0.967; with ALW-II-49-7 + Pemetrexed (first compound 0.08 µM), 0.244; in the test with ALW-II-49-7 + Pemetrexed (first compound 0.253 µM), 0.282. For the same cell line, the relative viability came out at 0.316 with ALW-II-49-7 + Pemetrexed (first compound 0.8 µM); 0.201 in the test with ALW-II-49-7 + Pemetrexed (first compound 8 µM); 0.2 with Dasatinib + OSI-027 (first compound 0.005 µM); 0.174 with Dasatinib + OSI-027 (first compound 0.01581 µM); 0.158 with Dasatinib + OSI-027 (first compound 0.05 µM); 0.167 with Dasatinib + OSI-027 (first compound 0.1581 µM). Also, in the test with Dasatinib + OSI-027 (first compound 0.5 µM), the relative viability stood at 0.172.
As to EKVX, the relative viability came out at 0.919 with XMD13-2 + Foretinib (first compound 0.05 µM); 0.746 with XMD13-2 + Foretinib (first compound 0.1581 µM); 0.699 with XMD13-2 + Foretinib (first compound 0.5 µM); 0.64 with XMD13-2 + Foretinib (first compound 1.581 µM); 0.83 with XMD13-2 + Foretinib (first compound 5 µM); 0.929 with ALW-II-49-7 + Alpelisib (first compound 0.08 µM). Besides, the relative viability with ALW-II-49-7 + Alpelisib (first compound 0.253 µM) came out at 0.78; in the test with ALW-II-49-7 + Alpelisib (first compound 0.8 µM), 0.868; in the test with ALW-II-49-7 + Alpelisib (first compound 2.53 µM) it was 0.685; with ALW-II-49-7 + Alpelisib (first compound 8 µM) it was 0.802; with ALW-II-49-7 + Pemetrexed (first compound 0.08 µM), 0.396; in the test with ALW-II-49-7 + Pemetrexed (first compound 0.253 µM), 0.323. Besides, the relative viability with ALW-II-49-7 + Pemetrexed (first compound 0.8 µM) worked out at 0.405; with ALW-II-49-7 + Pemetrexed (first compound 2.53 µM), 0.336; with ALW-II-49-7 + Pemetrexed (first compound 8 µM), 0.414; with Dasatinib + OSI-027 (first compound 0.005 µM), 0.66; with Dasatinib + OSI-027 (first compound 0.01581 µM), 0.508; with Dasatinib + OSI-027 (first compound 0.05 µM) it was 0.546. Also, the results for the relative viability with Dasatinib + OSI-027 (first compound 0.1581 µM) and with Dasatinib + OSI-027 (first compound 0.5 µM) were 0.355 and 0.123, respectively.
In the case of NCI-H2009, the relative viability with XMD13-2 + Foretinib (first compound 0.05 µM) was 1.3; with XMD13-2 + Foretinib (first compound 0.1581 µM), 1.2; with XMD13-2 + Foretinib (first compound 0.5 µM), 1.2; with XMD13-2 + Foretinib (first compound 1.581 µM), 1.17; in the test with XMD13-2 + Foretinib (first compound 5 µM), 1.3; in the test with ALW-II-49-7 + Alpelisib (first compound 0.08 µM) it was 1.12. Further, the relative viability in the test with ALW-II-49-7 + Alpelisib (first compound 0.253 µM) stood at 1.09; with ALW-II-49-7 + Alpelisib (first compound 0.8 µM), 1.12; with ALW-II-49-7 + Alpelisib (first compound 2.53 µM), 0.957; in the test with ALW-II-49-7 + Alpelisib (first compound 8 µM), 0.825; with ALW-II-49-7 + Pemetrexed (first compound 0.08 µM), 0.971; in the test with ALW-II-49-7 + Pemetrexed (first compound 0.253 µM), 1.14. Moreover, the relative viability with ALW-II-49-7 + Pemetrexed (first compound 0.8 µM) amounted to 0.955; in the test with ALW-II-49-7 + Pemetrexed (first compound 2.53 µM), 0.751; with ALW-II-49-7 + Pemetrexed (first compound 8 µM) it was 0.749; in the test with Dasatinib + OSI-027 (first compound 0.005 µM) it was 0.698; with Dasatinib + OSI-027 (first compound 0.01581 µM), 0.501; with Dasatinib + OSI-027 (first compound 0.05 µM) it was 0.407. In addition, the results for the relative viability with Dasatinib + OSI-027 (first compound 0.1581 µM) and with Dasatinib + OSI-027 (first compound 0.5 µM) were 0.189 and 0.158, respectively.
Turning to NCI-H838, the relative viability in the test with XMD13-2 + Foretinib (first compound 0.05 µM) was 1.19; with XMD13-2 + Foretinib (first compound 0.1581 µM), 1.05; with XMD13-2 + Foretinib (first compound 0.5 µM), 1.01; in the test with XMD13-2 + Foretinib (first compound 1.581 µM), 1.04; with XMD13-2 + Foretinib (first compound 5 µM) it was 1.01; with ALW-II-49-7 + Alpelisib (first compound 0.08 µM) it was 0.847. In addition, the relative viability came to 1.13 with ALW-II-49-7 + Alpelisib (first compound 0.253 µM); 1 in the test with ALW-II-49-7 + Alpelisib (first compound 0.8 µM); 1.13 in the test with ALW-II-49-7 + Alpelisib (first compound 2.53 µM); 0.987 with ALW-II-49-7 + Alpelisib (first compound 8 µM); 0.237 in the test with ALW-II-49-7 + Pemetrexed (first compound 0.08 µM); 0.272 with ALW-II-49-7 + Pemetrexed (first compound 0.253 µM). The relative viability with ALW-II-49-7 + Pemetrexed (first compound 0.8 µM) is 0.243; with ALW-II-49-7 + Pemetrexed (first compound 2.53 µM), 0.258; with ALW-II-49-7 + Pemetrexed (first compound 8 µM), 0.25; with Dasatinib + OSI-027 (first compound 0.005 µM), 0.409; in the test with Dasatinib + OSI-027 (first compound 0.01581 µM) it was 0.266; with Dasatinib + OSI-027 (first compound 0.05 µM), 0.265. The results for the relative viability with Dasatinib + OSI-027 (first compound 0.1581 µM) and with Dasatinib + OSI-027 (first compound 0.5 µM) were 0.252 and 0.179, respectively.
As for NCI-H2085, the relative viability was 0.971 with XMD13-2 + Foretinib (first compound 0.05 µM); 0.943 in the test with XMD13-2 + Foretinib (first compound 0.1581 µM); 0.963 with XMD13-2 + Foretinib (first compound 0.5 µM); 0.857 with XMD13-2 + Foretinib (first compound 1.581 µM); 0.923 with XMD13-2 + Foretinib (first compound 5 µM); 1.03 in the test with ALW-II-49-7 + Alpelisib (first compound 0.08 µM). The relative viability was 0.903 in the test with ALW-II-49-7 + Alpelisib (first compound 0.253 µM); 0.971 in the test with ALW-II-49-7 + Alpelisib (first compound 0.8 µM); 0.895 in the test with ALW-II-49-7 + Alpelisib (first compound 2.53 µM); 1.01 in the test with ALW-II-49-7 + Alpelisib (first compound 8 µM); 0.867 with ALW-II-49-7 + Pemetrexed (first compound 0.08 µM); 1.01 in the test with ALW-II-49-7 + Pemetrexed (first compound 0.253 µM). Besides, the relative viability came to 0.913 in the test with ALW-II-49-7 + Pemetrexed (first compound 0.8 µM); 1.01 with ALW-II-49-7 + Pemetrexed (first compound 2.53 µM); 0.854 with ALW-II-49-7 + Pemetrexed (first compound 8 µM); 0.554 in the test with Dasatinib + OSI-027 (first compound 0.005 µM); 0.626 with Dasatinib + OSI-027 (first compound 0.01581 µM); 0.34 with Dasatinib + OSI-027 (first compound 0.05 µM). The relative viability with Dasatinib + OSI-027 (first compound 0.1581 µM) is 0.251; in the test with Dasatinib + OSI-027 (first compound 0.5 µM), 0.164.
